This note sets out measurements from US9226916B2, “Pyrrolidine derivatives” (HOFFMANN-LA ROCHE INC., priority 2009, dated 2016).

What is called Ki is a measure of affinity in units of concentration, obtained from inhibition or displacement.

One experiment has as its target T1, recombinant human NK3 receptor (Homo sapiens, UniProt P29371).
T1 construct: expressed in transfected cells; host or cells: HEK293 cells, transient expression; membranes
T1 sequence (P29371 1-465): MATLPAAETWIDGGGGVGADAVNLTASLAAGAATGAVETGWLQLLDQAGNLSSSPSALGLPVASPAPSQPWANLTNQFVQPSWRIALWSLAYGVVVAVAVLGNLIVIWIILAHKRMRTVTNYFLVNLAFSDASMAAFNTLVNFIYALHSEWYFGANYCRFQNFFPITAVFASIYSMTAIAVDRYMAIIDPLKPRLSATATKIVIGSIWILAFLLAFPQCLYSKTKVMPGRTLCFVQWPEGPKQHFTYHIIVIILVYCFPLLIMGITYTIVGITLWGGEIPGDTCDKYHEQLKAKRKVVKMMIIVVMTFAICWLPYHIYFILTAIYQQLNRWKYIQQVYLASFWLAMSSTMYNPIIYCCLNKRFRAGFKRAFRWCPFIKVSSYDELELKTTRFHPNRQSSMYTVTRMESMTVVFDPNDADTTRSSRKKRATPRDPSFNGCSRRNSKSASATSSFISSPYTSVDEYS
Kind of experiment: [3H]SR142801 competition binding assay.
Conditions: not given
Take `CN(C(=O)OCC1CCOCC1)[C@H]1CN(C(=O)C2CCN(C(=O)C3(C)CC3)CC2)C[C@@H]1c1ccc(Cl)c(Cl)c1` (racemic) [Example 31, rac-{(3R,4S)-4-(3,4-Dichloro-phenyl)-1-[1-(1-methyl-cyclopropanecarbonyl)-piperidine-4-carbonyl]-pyrrolidin-3-yl}-methyl-carbamic acid tetrahydro-pyran-4-ylmethyl ester]: the Ki was 11.6 nM.

In the case of `CN(C(=O)Oc1ccc(F)cc1)[C@@H]1CN(C(=O)C2CCN(c3ccc(C(=O)NC(C)(C)C)cn3)CC2)C[C@H]1c1ccc(Cl)cc1` (racemic) [Example 120, rac-[(3S,4R)-1-(5′-tert-Butylcarbamoyl-3,4,5,6-tetrahydro-2H-[1,2′]bipyridinyl-4-carbonyl)-4-(4-chloro-phenyl)-pyrrolidin-3-yl]-methyl-carbamic acid 4-fluoro-phenyl ester], the Ki turned out to be 1.6 nM.

On to `CN(C(=O)Oc1cccc(Cl)n1)[C@@H]1CN(C(=O)C2CCN(C(=O)C3(C)CC3)CC2)C[C@H]1c1ccc(Cl)c(Cl)c1` [Example 300, {(3S,4R)-4-(3,4-Dichloro-phenyl)-1-[1-(1-methyl-cyclopropanecarbonyl)-piperidine-4-carbonyl]-pyrrolidin-3-yl}-methyl-carbamic acid 6-chloro-pyridin-2-yl ester], for which the Ki turned out to be 2.6 nM.

In the case of `CN(C(=O)Oc1ccc(F)cc1)[C@@H]1CN(C(=O)C2CCN(C(=O)C3CC(F)(F)C3)CC2)C[C@H]1c1ccc(Cl)cc1` [Example 250, {(3S,4R)-4-(4-Chloro-phenyl)-1-[1-(3,3-difluoro-cyclobutanecarbonyl)-piperidine-4-carbonyl]-pyrrolidin-3-yl}-methyl-carbamic acid 4-fluoro-phenyl Ester], the Ki is 1.4 nM.

Take `CN(C(=O)Oc1ccc(F)cc1)[C@@H]1CN(C(=O)C2CCCOC2)C[C@H]1c1ccc(Cl)cc1` (stereo partly drawn) [Example 147, [(3S,4R)-4-(4-Chloro-phenyl)-1-(tetrahydro-pyran-3-carbonyl)-pyrrolidin-3-yl]-methyl-carbamic acid 4-fluoro-phenyl ester]: the Ki was 73.7 nM.

For `CN(C(=O)Oc1ccc(F)cc1)[C@@H]1CN(C(=O)C2CCN(C(=O)C3(C(F)(F)F)CC3)CC2)C[C@H]1c1ccc(Cl)c(Cl)c1` [Example 273, {(3S,4R)-4-(3,4-Dichloro-phenyl)-1-[1-(1-trifluoromethyl-cyclopropanecarbonyl)-piperidine-4-carbonyl]-pyrrolidin-3-yl}-methyl-carbamic acid 4-fluoro-phenyl ester], the Ki was 0.4 nM.

With `CN(C(=O)OCCCC(F)(F)C(F)(F)F)[C@H]1CN(C(=O)C2CCN(C(=O)C3(C)CC3)CC2)C[C@@H]1c1ccc(Cl)c(Cl)c1` (racemic) [Example 88, rac-{(3R,4S)-4-(3,4-Dichloro-phenyl)-1-[1-(1-methyl-cyclopropanecarbonyl)-piperidine-4-carbonyl]-pyrrolidin-3-yl}-methyl-carbamic acid 4,4,5,5,5-pentafluoro-pentyl ester], the Ki worked out at 8.3 nM.

Consider `CN(C(=O)Oc1ccc(F)cc1)[C@@H]1CN(C(=O)C2CCN(C(=O)C3(C)COC3)CC2)C[C@H]1c1ccc(Cl)c(Cl)c1` [Example 266, {(3S,4R)-4-(3,4-Dichloro-phenyl)-1-[1-(3-methyl-oxetane-3-carbonyl)-piperidine-4-carbonyl]-pyrrolidin-3-yl}-methyl-carbamic acid 4-fluoro-phenyl ester], for which the Ki stood at 0.5 nM.

For `CN(C(=O)OCCC(F)(F)F)[C@@H]1CN(C(=O)C2CCN(C(=O)C3(C)CC3)CC2)C[C@H]1c1ccc(Cl)c(Cl)c1` (stereo in doubt) [Example 87, {(3S,4R)-4-(3,4-Dichloro-phenyl)-1-[1-(1-methyl-cyclopropanecarbonyl)-piperidine-4-carbonyl]-pyrrolidin-3-yl}-methyl-carbamic acid 3,3,3-trifluoro-propyl ester], the Ki worked out at 9.2 nM.

Consider `CN(C(=O)Oc1ccc(F)cc1)[C@H]1CN(C(=O)[C@H]2CC[C@@H](O)CC2)C[C@@H]1c1ccc(Cl)c(Cl)c1` (racemic) [Example 47, rac-[(3R,4S)-4-(3,4-Dichloro-phenyl)-1-(cis-4-hydroxy-cyclohexanecarbonyl)-pyrrolidin-3-yl]-methyl-carbamic acid 4-fluoro-phenyl ester], for which the Ki amounted to 3.4 nM.

`CN(C(=O)Oc1ccc(F)cc1)[C@H]1CN(C(=O)C2CCN(C(=O)C3(C)CC3)CC2)C[C@@H]1c1ccc(Cl)c(Cl)c1` [Example 5, {(3R,4S)-4-(3,4-Dichloro-phenyl)-1-[1-(1-methyl-cyclopropanecarbonyl)-piperidine-4-carbonyl]-pyrrolidin-3-yl}-methyl-carbamic acid 4-fluoro-phenyl ester]: the Ki amounted to 56.2 nM.

Take `CN(C(=O)Oc1ccc(F)cc1)[C@@H]1CN(C(=O)C2CCN(c3ncc(Cl)cn3)CC2)C[C@H]1c1ccc(Cl)cc1` [Example 184, {(3S,4R)-4-(4-Chloro-phenyl)-1-[1-(5-chloro-pyrimidin-2-yl)-piperidine-4-carbonyl]-pyrrolidin-3-yl}-methyl-carbamic acid 4-fluoro-phenyl ester]: the Ki worked out at 6.7 nM.

Consider `CN(C(=O)Oc1ccc(F)cc1)[C@H]1CN(C(=O)C2CCN(C3CCOCC3)CC2)C[C@@H]1c1ccc(Cl)c(Cl)c1` (racemic) [Example 77, rac-{(3R,4S)-4-(3,4-Dichloro-phenyl)-1-[1-(tetrahydro-pyran-4-yl)-piperidine-4-carbonyl]-pyrrolidin-3-yl}-methyl-carbamic acid 4-fluoro-phenyl ester], for which the Ki was 1.5 nM.

On to `CN(C(=O)Oc1ccc(F)cc1)[C@@H]1CN(C(=O)C2CCN(c3ncccc3C#N)CC2)C[C@H]1c1ccc(Cl)cc1` [Example 186, [(3S,4R)-4-(4-Chloro-phenyl)-1-(3′-cyano-3,4,5,6-tetrahydro-2H-[1,2′]bipyridinyl-4-carbonyl)-pyrrolidin-3-yl]-methyl-carbamic acid 4-fluoro-phenyl ester], for which the Ki turned out to be 6 nM.

With `CN(C(=O)Oc1ccc(F)cc1)[C@@H]1CN(C(=O)C2CCN(C(=O)c3ccc(C(F)(F)F)cn3)CC2)C[C@H]1c1ccc(Cl)c(Cl)c1` [Example 279, {(3S,4R)-4-(3,4-Dichloro-phenyl)-1-[1-(5-trifluoromethyl-pyridine-2-carbonyl)-piperidine-4-carbonyl]-pyrrolidin-3-yl}-methyl-carbamic acid 4-fluoro-phenyl ester], the Ki stood at 2 nM.

With `CN(C(=O)Oc1ccc(F)cc1)[C@@H]1CN(C(=O)[C@H]2CC[C@H](C#N)CC2)C[C@H]1c1ccc(Cl)cc1` [Example 104, [(3S,4R)-4-(4-Chloro-phenyl)-1-(4-cyano-cyclohexanecarbonyl)-pyrrolidin-3-yl]-methyl-carbamic acid 4-fluoro-phenyl ester], the Ki was 7.4 nM.

With `CCCOC(=O)N(C)[C@@H]1CN(C(=O)C2CCN(c3ccc(C#N)cn3)CC2)C[C@H]1c1ccc(Cl)cc1` [Example 138, [(3S,4R)-4-(4-Chloro-phenyl)-1-(5′-cyano-3,4,5,6-tetrahydro-2H-[1,2′]bipyridinyl-4-carbonyl)-pyrrolidin-3-yl]-methyl-carbamic acid propyl ester], the Ki is 37.1 nM.

Consider `CN(C(=O)Oc1ccc(F)cc1)[C@@H]1CN(C(=O)C2CCN(c3ccc(Cl)cn3)CC2)C[C@H]1c1ccc(Cl)cc1` [Example 199, [(3S,4R)-4-(4-Chloro-phenyl)-1-(5′-chloro-3,4,5,6-tetrahydro-2H-[1,2′]bipyridinyl-4-carbonyl)-pyrrolidin-3-yl]-methyl-carbamic acid 4-fluoro-phenyl ester], for which the Ki was 0.9 nM.

Take `CC(C)N1CC(C(=O)N2CCC(C(=O)N3C[C@@H](N(C)C(=O)Oc4ccc(F)cc4)[C@H](c4ccc(Cl)c(Cl)c4)C3)CC2)CCC1=O` (stereo partly drawn) [Example 282, {(3S,4R)-4-(3,4-Dichloro-phenyl)-1-[1-(1-isopropyl-6-oxo-piperidine-3-carbonyl)-piperidine-4-carbonyl]-pyrrolidin-3-yl}-methyl-carbamic acid 4-fluoro-phenyl ester]: the Ki turned out to be 2 nM.

Take `CN(C(=O)Oc1ccc(F)cc1)[C@@H]1CN(C(=O)C2CCN(c3ccc(S(C)(=O)=O)cn3)CC2)C[C@H]1c1ccc(Cl)cc1` [Example 180, [(3S,4R)-4-(4-Chloro-phenyl)-1-(5′-methanesulfonyl-3,4,5,6-tetrahydro-2H-[1,2′]bipyridinyl-4-carbonyl)-pyrrolidin-3-yl]-methyl-carbamic acid 4-fluoro-phenyl ester]: the Ki was found to be 0.7 nM.

The same experiment, now with this note: hNK-3 receptor affinity; membranes from HEK293 cells transiently expressing recombinant human NK3 receptor; [3H]SR142801; Cheng-Prussoff; read-out: Data Ki.
As to `CN(C(=O)O[C@H]1CC[C@H](C(F)(F)F)CC1)[C@@H]1CN(C(=O)C2CCN(c3ccc(C#N)cn3)CC2)C[C@H]1c1ccc(Cl)cc1` [Example 126, [(3S,4R)-4-(4-Chloro-phenyl)-1-(5′-cyano-3,4,5,6-tetrahydro-2H-[1,2′]bipyridinyl-4-carbonyl)-pyrrolidin-3-yl]-methyl-carbamic acid 4-trifluoromethyl-cyclohexyl ester], the Ki came to 1.2 nM.

Regarding `CN(C(=O)OCC1(C)CC1)[C@H]1CN(C(=O)C2CCN(C(=O)C3(C)CC3)CC2)C[C@@H]1c1ccc(Cl)c(Cl)c1` (racemic) [Example 91, rac-{(3R,4S)-4-(3,4-Dichloro-phenyl)-1-[1-(1-methyl-cyclopropanecarbonyl)-piperidine-4-carbonyl]-pyrrolidin-3-yl}-methyl-carbamic acid 1-methyl-cyclopropylmethyl ester], the Ki is 4.4 nM.
